Test results reported in patent US8404679B2, “Pyrrolidine derivatives as NK2 receptor antagonists” (Hoffmann-La Roche Inc., priority 2008, dated 2013).
pKi: −log10 of the molar value.

biological target: T1, human NK2 receptor (Homo sapiens, UniProt P21452); experiment: [3H]SR48968 competition binding assay; settings: [3H]SR48968 displacement, membranes of CHO cells stably expressing recombinant human NK2 receptor; Ki from IC50 by Cheng-Prussoff
T1 construct: purchased Perkin Elmer biosignal Inc. 6110510
T1 sequence (P21452 1-398): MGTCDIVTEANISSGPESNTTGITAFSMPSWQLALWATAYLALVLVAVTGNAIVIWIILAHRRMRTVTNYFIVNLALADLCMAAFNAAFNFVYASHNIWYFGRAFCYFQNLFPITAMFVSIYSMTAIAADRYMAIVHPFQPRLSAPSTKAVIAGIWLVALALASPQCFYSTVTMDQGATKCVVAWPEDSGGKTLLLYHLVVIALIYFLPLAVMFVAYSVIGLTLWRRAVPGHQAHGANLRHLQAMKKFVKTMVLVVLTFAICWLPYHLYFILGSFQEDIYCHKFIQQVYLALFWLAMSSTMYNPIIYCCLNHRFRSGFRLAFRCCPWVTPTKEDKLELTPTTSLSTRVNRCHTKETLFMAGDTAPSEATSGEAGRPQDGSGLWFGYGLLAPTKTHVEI
Protocol: [^3H]SR48968 Competition Binding Assay
hNK2 receptor binding experiment were performed using [^3H]SR48968 (Catalog No. TRK398, specific activity: 27.0 Ci/mmol, Amersham, GE Healthcare UK limited, Buckinghamshire, UK) and membrane isolated from CHO cells stably expressing recombinant human NK2 receptor (product No. 6110510, Perkin Elmer biosignal Inc., Shelton, Conn., USA). After thawing, the membrane homogenates were centrifuged at 48,000×g for 10 min at 4° C., the pellets were resuspended in the 50 mM Tris-HCl, 3 mM MnCl2, 4 μg/mL Chymostatin, 0.04% BSA binding buffer at pH 7.4 to a final assay concentration of 6.5 μg protein/well. For inhibition experiments, membranes were incubated with [^3H]SR48968 at a concentration equal to KD value of radioligand and 10 concentrations of the inhibitory compound (0.0003-10 μM) (in a total reaction volume of 500 μl) for 75 min at room temperature (RT). At the end of the incubation, membranes were filtered onto unitfilter (96-well white microplate with bonded GF/C filter preincubated 1 h in 0.3% polyethylenimine, Packard BioScience, Meriden, Conn.) with a Filtermate 196 harvester (Packard BioScience) and washed 4 times with ice-cold 50 mM Tris-HCl, pH 7.4 buffer. Nonspecific binding was measured in the presence of 10 μM 1-{2-[(R)-3-(3,4-dichloro-phenyl)-1-(3,4,5-trimethoxy-benzoyl)-pyrrolidin-3-yl]-ethyl}-4-phenyl-piperidine-4-carboxylic acid amide. The radioactivity on the filter was counted (5 min) on a Packard Top-count microplate scintillation counter with quenching correction after addition of 45 μl of microscint 40 (Canberra Packard S. A., Zürich, Switzerland) and shaking for 1 h. Inhibition curves were fitted according to the Hill equation: y=100/(1+(x/IC50)^nH), where nH=slope factor using Excel-fit 4 software (Microsoft). IC50 values were derived from the inhibition curve and the affinity constant (Ki) values were calculated using the Cheng-Prussoff equation Ki=IC50/(1+[L]/KD) where [L] was the concentration of radioligand and KD was its dissociation constant at the receptor, derived from the saturation isotherm.

Structure (SMILES) | pKi
COc1ccc(C(=O)N(C)[C@@H]2CN(C(=O)N3CCN(S(C)(=O)=O)CC3)C[C@H]2c2ccc(Cl)cc2)cc1C(F)(F)F (racemic) [Example 6, rac-N-[(3S,4R)-4-(4-Chloro-phenyl)-1-(4-methanesulfonyl-piperazine-1-carbonyl)-pyrrolidin-3-yl]-4-methoxy-N-methyl-3-trifluoromethyl-benzamide] | 7.97
CN(C(=O)c1cccc(C(F)(F)F)c1)[C@@H]1CN(C(=O)N2CCN(S(C)(=O)=O)CC2)C[C@H]1c1ccc(Cl)cc1 (racemic) [Example 7, rac-N-[(3S,4R)-4-(4-Chloro-phenyl)-1-(4-methanesulfonyl-piperazine-1-carbonyl)-pyrrolidin-3-yl]-N-methyl-3-trifluoromethyl-benzamide] | 7.47
COc1ccc(C(=O)N(C)[C@@H]2CN(C(=O)N3CCN(S(C)(=O)=O)CC3)C[C@H]2c2ccc(Cl)c(Cl)c2)cc1C(F)(F)F (racemic) [Example 8, rac-N-[(3S,4R)-4-(3,4-Dichloro-phenyl)-1-(4-methanesulfonyl-piperazine-1-carbonyl)-pyrrolidin-3-yl]-4-methoxy-N-methyl-3-trifluoromethyl-benzamide] | 8.63
CN(C(=O)c1ccccc1)[C@@H]1CN(C(=O)N2CCN(S(C)(=O)=O)CC2)C[C@H]1c1ccc(Cl)c(Cl)c1 (racemic) [Example 9, rac-N-[(3S,4R)-4-(3,4-Dichloro-phenyl)-1-(4-methanesulfonyl-piperazine-1-carbonyl)-pyrrolidin-3-yl]-N-methyl-benzamide] | 7.06
CN(C(=O)c1ccc(F)cc1)[C@@H]1CN(C(=O)N2CCN(S(C)(=O)=O)CC2)C[C@H]1c1ccc(Cl)c(Cl)c1 (racemic) [Example 10, rac-N-[(3S,4R)-4-(3,4-Dichloro-phenyl)-1-(4-methanesulfonyl-piperazine-1-carbonyl)-pyrrolidin-3-yl]-4-fluoro-N-methyl-benzamide] | 7.54
CN(C(=O)c1cccc(Cl)c1)[C@@H]1CN(C(=O)N2CCN(S(C)(=O)=O)CC2)C[C@H]1c1ccc(Cl)c(Cl)c1 (racemic) [Example 11, rac-3-Chloro-N-[(3S,4R)-4-(3,4-dichloro-phenyl)-1-(4-methanesulfonyl-piperazine-1-carbonyl)-pyrrolidin-3-yl]-N-methyl-benzamide] | 7.84
CN(C(=O)c1ccc(Cl)cc1)[C@@H]1CN(C(=O)N2CCN(S(C)(=O)=O)CC2)C[C@H]1c1ccc(Cl)c(Cl)c1 (racemic) [Example 12, rac-4-Chloro-N-[(3S,4R)-4-(3,4-dichloro-phenyl)-1-(4-methanesulfonyl-piperazine-1-carbonyl)-pyrrolidin-3-yl]-N-methyl-benzamide] | 8.56
CN(C(=O)c1ccc(C#N)cc1)[C@@H]1CN(C(=O)N2CCN(S(C)(=O)=O)CC2)C[C@H]1c1ccc(Cl)c(Cl)c1 (racemic) [Example 13, rac-4-Cyano-N-[(3S,4R)-4-(3,4-dichloro-phenyl)-1-(4-methanesulfonyl-piperazine-1-carbonyl)-pyrrolidin-3-yl]-N-methyl-benzamide] | 7.63
CCc1ccc(C(=O)N(C)[C@@H]2CN(C(=O)N3CCN(S(C)(=O)=O)CC3)C[C@H]2c2ccc(Cl)c(Cl)c2)cc1 (racemic) [Example 14, rac-N-[(3S,4R)-4-(3,4-Dichloro-phenyl)-1-(4-methanesulfonyl-piperazine-1-carbonyl)-pyrrolidin-3-yl]-4-ethyl-N-methyl-benzamide] | 8.93

Second part, the molecule after the results:

pKi | Structure (SMILES)
7.19 | CN(C(=O)c1cccc(C#N)c1)[C@@H]1CN(C(=O)N2CCN(S(C)(=O)=O)CC2)C[C@H]1c1ccc(Cl)c(Cl)c1 (racemic) [Example 15, rac-3-Cyano-N-[(3S,4R)-4-(3,4-dichloro-phenyl)-1-(4-methanesulfonyl-piperazine-1-carbonyl)-pyrrolidin-3-yl]-N-methyl-benzamide]
8.29 | CN(C(=O)c1ccc(OC(F)(F)F)cc1)[C@@H]1CN(C(=O)N2CCN(S(C)(=O)=O)CC2)C[C@H]1c1ccc(Cl)c(Cl)c1 (racemic) [Example 16, rac-N-[(3S,4R)-4-(3,4-Dichloro-phenyl)-1-(4-methanesulfonyl-piperazine-1-carbonyl)-pyrrolidin-3-yl]-N-methyl-4-trifluoromethoxy-benzamide]
7.02 | CN(C(=O)c1cccc(F)c1)[C@@H]1CN(C(=O)N2CCN(S(C)(=O)=O)CC2)C[C@H]1c1ccc(Cl)c(Cl)c1 (racemic) [Example 17, rac-N-[(3S,4R)-4-(3,4-Dichloro-phenyl)-1-(4-methanesulfonyl-piperazine-1-carbonyl)-pyrrolidin-3-yl]-3-fluoro-N-methyl-benzamide]
7.68 | CN(C(=O)c1cc(F)cc(C(F)(F)F)c1)[C@@H]1CN(C(=O)N2CCN(S(C)(=O)=O)CC2)C[C@H]1c1ccc(Cl)c(Cl)c1 (racemic) [Example 18, rac-N-[(3S,4R)-4-(3,4-Dichloro-phenyl)-1-(4-methanesulfonyl-piperazine-1-carbonyl)-pyrrolidin-3-yl]-3-fluoro-N-methyl-5-trifluoromethyl-benzamide]
8.61 | CN(C(=O)c1ccc(C(F)(F)F)c(F)c1)[C@@H]1CN(C(=O)N2CCN(S(C)(=O)=O)CC2)C[C@H]1c1ccc(Cl)c(Cl)c1 (racemic) [Example 20, rac-N-[(3S,4R)-4-(3,4-Dichloro-phenyl)-1-(4-methanesulfonyl-piperazine-1-carbonyl)-pyrrolidin-3-yl]-3-fluoro-N-methyl-4-trifluoromethyl-benzamide]
7.88 | CN(C(=O)c1cccc(Cl)c1F)[C@@H]1CN(C(=O)N2CCN(S(C)(=O)=O)CC2)C[C@H]1c1ccc(Cl)c(Cl)c1 (racemic) [Example 21, rac-3-Chloro-N-[(3S,4R)-4-(3,4-dichloro-phenyl)-1-(4-methanesulfonyl-piperazine-1-carbonyl)-pyrrolidin-3-yl]-2-fluoro-N-methyl-benzamide]
8.33 | CN(C(=O)c1cccc(C(F)(F)F)c1F)[C@@H]1CN(C(=O)N2CCN(S(C)(=O)=O)CC2)C[C@H]1c1ccc(Cl)c(Cl)c1 (racemic) [Example 22, rac-N-[(3S,4R)-4-(3,4-Dichloro-phenyl)-1-(4-methanesulfonyl-piperazine-1-carbonyl)-pyrrolidin-3-yl]-2-fluoro-N-methyl-3-trifluoromethyl-benzamide]
7.99 | CN(C(=O)c1ccc2occc2c1)[C@@H]1CN(C(=O)N2CCN(S(C)(=O)=O)CC2)C[C@H]1c1ccc(Cl)c(Cl)c1 (racemic) [Example 23, rac-Benzofuran-5-carboxylic acid [(3S,4R)-4-(3,4-dichloro-phenyl)-1-(4-methanesulfonyl-piperazine-1-carbonyl)-pyrrolidin-3-yl]-methyl-amide]
8.76 | CN(C)c1ccc(C(=O)N(C)[C@@H]2CN(C(=O)N3CCN(S(C)(=O)=O)CC3)C[C@H]2c2ccc(Cl)c(Cl)c2)cc1 (racemic) [Example 24, rac-N-[(3S,4R)-4-(3,4-Dichloro-phenyl)-1-(4-methanesulfonyl-piperazine-1-carbonyl)-pyrrolidin-3-yl]-4-dimethylamino-N-methyl-benzamide]
8.22 | Cc1cc(C(=O)N(C)[C@@H]2CN(C(=O)N3CCN(S(C)(=O)=O)CC3)C[C@H]2c2ccc(Cl)c(Cl)c2)ccc1F (racemic) [Example 25, rac-N-[(3S,4R)-4-(3,4-Dichloro-phenyl)-1-(4-methanesulfonyl-piperazine-1-carbonyl)-pyrrolidin-3-yl]-4-fluoro-3,N-dimethyl-benzamide]
8.02 | COc1ccc(C(=O)N(C)[C@@H]2CN(C(=O)N3CCN(S(C)(=O)=O)CC3)C[C@H]2c2ccc(Cl)c(Cl)c2)cc1F (racemic) [Example 26, rac-N-[(3S,4R)-4-(3,4-Dichloro-phenyl)-1-(4-methanesulfonyl-piperazine-1-carbonyl)-pyrrolidin-3-yl]-3-fluoro-4-methoxy-N-methyl-benzamide]
7.79 | CN(C(=O)c1ccc(F)c(F)c1)[C@@H]1CN(C(=O)N2CCN(S(C)(=O)=O)CC2)C[C@H]1c1ccc(Cl)c(Cl)c1 (racemic) [Example 27, rac-N-[(3S,4R)-4-(3,4-Dichloro-phenyl)-1-(4-methanesulfonyl-piperazine-1-carbonyl)-pyrrolidin-3-yl]-3,4-difluoro-N-methyl-benzamide]
